Laboratory results: publication PMC11678221, “Design, Synthesis and Molecular Modeling of Pyrazolo[1,5-a]pyrimidine Derivatives as Dual Inhibitors of CDK2 and TRKA Kinases with Antiproliferative Activity” (Pharmaceuticals, 2024)

How the values were obtained:
CDK2/CyclinA2 = target: T1, CDK2/CyclinA2 (Homo sapiens, UniProt P24941); assay: CDK2 inhibition assay (BPS Bioscience kit, Kinase-Glo Max luminescence); assay type: biochemical; details: four concentrations 0.01, 0.1, 1, 10 µM, triplicate, mean ± SD, read-out: Enzyme Inhibition IC50 CDK-2
T1 construct: purchased BPS Bioscience, San Diego, CA, USA 79599

TrkA = target: T2, TrkA (Homo sapiens, UniProt P04629); assay: TRKA inhibition assay (BPS Bioscience kit, Kinase-Glo Max luminescence); assay type: biochemical; details: four concentrations 0.01, 0.1, 1, 10 µM, triplicate, mean ± SD, read-out: Enzyme Inhibition IC50 TRK-A
T2 construct: purchased BPS Bioscience, San Diego, CA, USA 79548
T2 sequence (P04629 33-796): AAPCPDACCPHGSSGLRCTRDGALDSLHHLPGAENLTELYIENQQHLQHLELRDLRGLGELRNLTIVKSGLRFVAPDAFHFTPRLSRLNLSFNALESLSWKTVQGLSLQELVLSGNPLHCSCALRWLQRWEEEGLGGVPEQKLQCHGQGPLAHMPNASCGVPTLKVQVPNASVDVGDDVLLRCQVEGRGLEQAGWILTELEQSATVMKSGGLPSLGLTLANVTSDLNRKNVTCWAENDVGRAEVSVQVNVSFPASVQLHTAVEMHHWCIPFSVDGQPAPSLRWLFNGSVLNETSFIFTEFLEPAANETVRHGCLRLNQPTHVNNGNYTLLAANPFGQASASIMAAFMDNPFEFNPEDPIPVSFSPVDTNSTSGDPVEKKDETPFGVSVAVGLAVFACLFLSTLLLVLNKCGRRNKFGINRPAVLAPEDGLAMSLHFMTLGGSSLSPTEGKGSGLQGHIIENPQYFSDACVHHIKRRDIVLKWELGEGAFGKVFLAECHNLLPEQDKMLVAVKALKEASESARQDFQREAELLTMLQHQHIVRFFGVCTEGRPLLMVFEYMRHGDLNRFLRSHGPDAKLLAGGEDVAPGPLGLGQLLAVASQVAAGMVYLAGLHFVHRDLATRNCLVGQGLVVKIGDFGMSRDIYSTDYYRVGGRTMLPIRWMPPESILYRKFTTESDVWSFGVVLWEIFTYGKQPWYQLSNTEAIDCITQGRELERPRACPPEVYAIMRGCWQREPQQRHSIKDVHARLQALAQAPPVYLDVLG

RFX 393 [1] = assay: NCI 60 cell line single-dose growth inhibition (SRB); assay type: cell-based, human; details: 10 µM; kidney carcinoma cell line RFX 393
Description: (§1) The developed pyrazolopyrimidines 6a–t, 11a–g, and 12 were evaluated by the National Cancer Institute (NCI) Developmental Therapeutic Program https://dtp.cancer.gov/ (accessed on 17 July 2022) for their prospective efficacy of growth-inhibitory activity verses 60 different carcinoma cell lines of NCI. Human carcinoma cell lines originated across nine distinct cancer types: central nervous system, cancer of the blood, colorectal, breast, ovary, kidney, melanoma, prostatic, and lung carcinomas. All compounds have been assessed with a concentration of 10 µM versus the collection of 60 diverse cancer cell lines. Outcomes are expressed as percentages of growth inhibition (GI %) for the evaluated compounds versus the complete set of cell lines (Supplementary Materials).
(§2) Performed by US National Cancer Institute according to previously reported standard procedure as follows: Cells were plated into 96-well microtiter plates with each well equipped with 100 µL of culture medium at densities between 5000 and 40,000 cells per well, based on the specific cell line’s doubling time. After seeding, incubation was carried out at 37 °C in 5% carbon dioxide, 95% […] environment with 100% relative humidity for one day to permit the cells to attach before proceeding to treatment with the tested compounds. To determine the cell count at drug exposure time of (Tz), two plates were per fixed cell line using trichloroacetic acid after the 24 h incubation period.
(§3) The studied compounds were initially dispersed in dimethyl sulfoxide at a concentration 400 times exceeding the intended final concentration and subsequently frozen until required. Before the application, an aliquot of the stock solution was warmed to room temperature and diluted in a complete medium containing 50 µg per mL of gentamicin to attain twice the intended concentration. Subsequently, 100 µL of the diluted compound was introduced to every well holding 100 µL of the medium to achieve the intended concentration. After the compound was added, the plates were incubated under the same conditions for a further 48 h at 37 °C.
(§4) For the adherent cells, the experiment was concluded via the introduction of 50 µL of cold 50% (w/v) trichloroacetic acid into each well, resulting in a last TCA concentration for 10%. Then, the cell plates were incubated at 4 °C for about one hour to fix the cells.
(§5) After the removal of the supernatant, the plates were washed with tap water five times before being dried using air. For the suspension cells, a similar process was followed, but 50 µL of 80% TCA was used, yielding a final TCA concentration of 16% for the cells fixed in the well’s bottom.
(§6) Following cell fixation, 100 µL of the 0.4% (wight/volume) solution of sulforhodamine B with acetic acid at a concentration of 1% was introduced to all individual wells, and then incubated at ambient temperature for 10 min. The plates were washed five times with 1% acetic acid to eliminate any residual dye, followed by air-drying. Next, […] Tris base was added to disperse the bonded dye, and, using an automatic microplate reader, the absorbance was determined at 515 nm.
(§7) The percentage of growth inhibition measurement depended on the absorbance values at the baseline time point […], as well as during the control growth phase (C) and the test growth phase (Ti). When Ti was greater than or equal to Tz, the calculation formula used [(Ti − Tz)/(C − Tz)] × 100. If Ti was less than Tz, the formula used was (Ti − Tz)/Tz × 100.

HOP-62 = assay: as above; assay type: cell-based, human; details: 10 µM; lung carcinoma HOP-62
Description: as §1, §2, §3, §4, §5, §6, §7

HOP-92 = assay: as above; assay type: cell-based, human; details: 10 µM; lung carcinoma HOP-92
Description: as §1, §2, §3, §4, §5, §6, §7

RPMI-8226 = assay: as above; assay type: cell-based, human; details: 10 µM; leukemia RPMI-8226
Description: as §1, §2, §3, §4, §5, §6, §7

CCRF-CEM = assay: as above; assay type: cell-based, human; details: 10 µM; leukemia CCRF-CEM
Description: as §1, §2, §3, §4, §5, §6, §7

NCI-H460 = assay: as above; assay type: cell-based, human; details: 10 µM; lung carcinoma NCI-H460
Description: as §1, §2, §3, §4, §5, §6, §7

56 cell lines = assay: NCI 60 cell line single-dose growth inhibition, mean over the panel; assay type: cell-based; details: Homo sapiens, mean across 56 cell lines, read-out: mean growth inhibition (GI%)
Description: as §1, with “Materials). […]” for “Materials).”
Following cell fixation, 100 µL of the 0.4% (wight/volume) solution of sulforhodamine B with acetic acid at a concentration of 1% was introduced to all individual wells, and then incubated at ambient temperature for 10 min. […] Next, 10 µM Tris base was added to disperse the bonded dye, and, using an automatic microplate reader, the absorbance was determined at 515 nm.
The percentage of growth inhibition measurement depended on the absorbance values at the baseline time point (T0), as well as during the control growth phase (C) and the test growth phase (Ti). […]

ACHN = assay: NCI 60 cell line single-dose growth inhibition (SRB); assay type: cell-based, human; details: 10 µM; renal cancer cell line ACHN
Description: as §1, §2, §3, §4, §5, §6, §7

RFX 393 cells [2] = assay: Apoptosis and necrosis investigation (Annexin V/PI flow cytometry); assay type: cell-based; details: GI50 concentration, 48 h; for Apoptosis Late: control 0.15, % given in Figure 10 only; for Apoptosis Early: control 0.64, % given in Figure 10 only; for Necrosis: control 1.92, % given in Figure 10 only; for Apoptosis Total: control 2.71, % given in Figure 10 only
Description: To assess the influence of compounds 6s and 6t on cell death pathways, RFX 393 cells were subjected to the compounds for 48 h and then stained using Annexin V/PI. […] The comprehensive outcomes are provided in Table 4 and graphically illustrated in Figure 10.
RFX 393 cells underwent treatment with the GI50 concentrations of compounds 6s and 6t for 48 h. Following the treatment, the cells were collected, dispersed in 0.5 mL of PBS, and subjected to centrifugation. They were then preserved in 70% (v/v) ethanol at 4 °C and subsequently rinsed with PBS. The fixed cells were then centrifuged again, resuspended in PBS, centrifuged once more, and stained with PE Annexin V and propidium iodide (PI) according to the manufacturer’s instructions. The samples were subsequently analyzed using flow cytometry with a FACScalibur instrument (Becton Dickinson, Franklin Lakes, NJ, USA). Data on cell cycle distributions were processed with the aid of Phoenix Flow Systems and Verity Software House.

RFX 393 [3] = assay: In vitro cytotoxicity on renal carcinoma cell line (MTT assay); assay type: cell-based; details: renal carcinoma cell line RFX 393, read-out: RFX393 (IC50)
RFX 393 cells [4] = assay: Cell cycle investigation (PI flow cytometry); assay type: cell-based; details: GI50 concentration, 48 h; for %S: control 29.33; for %G0–G1: control 57.08
Description: RFX 393 cells underwent treatment with pyrazolopyrimidine derivatives 6s and 6t at their GI50 concentrations for 48 h.
RFX 393 cells underwent treatment with compounds 6s and 6t at their respective GI50 concentrations for 48 h. Following treatment, the cells were collected, dispersed in 0.5 mL of PBS, and subjected to centrifugation. They were then preserved in 70% (v/v) ethanol at 4 °C and subsequently rinsed with PBS, treated with RNase, and propidium iodide (PI) was used to stain the cells. Flow cytometric measurements were carried out employing a FACScalibur system (Becton Dickinson, Franklin Lakes, NJ, USA). The distributions of the cell cycle were subsequently calculated with the aid of software from Phoenix Flow Systems and Verity Software House (ModFit LT V6.0).

SNB-75 = assay: NCI 60 cell line single-dose growth inhibition (SRB); assay type: cell-based, human; details: 10 µM; central nervous system SNB-75 carcinoma cell line
Description: as §1, §2, §3, §4, §5, §6, §7

Trk = details: known inhibitor, in Figure 2; no reference given; cited from earlier work

## COc1ccc(-c2ccnc3c(C#N)c(Nc4ccccc4)nn23)cc1OC [6d, 7-(3,4-Dimethoxyphenyl)-2-(anilinyl)pyrazolo[1,5-a]pyrimidine-3-carbonitrile]
CDK2/CyclinA2
  IC50: 550 ± 40 nM
TrkA
  IC50: 570 ± 20 nM
RFX 393 [1]
  GI %: 84.17%
HOP-62
  GI %: 100.07%

## N#Cc1c(Nc2ccccc2)nn2c(-c3ccco3)ccnc12 [6i, 7-(Furan-2-yl)-2-(anilinyl)pyrazolo[1,5-a]pyrimidine-3-carbonitrile]
HOP-92
  GI %: 68.96%

## CCOC(=O)c1c(Nc2ccccc2)nn2c(-c3ccccc3)ccnc12 [6k, Ethyl 7-Phenyl-2-(anilinyl)pyrazolo[1,5-a]pyrimidine-3-carboxylate]
CDK2/CyclinA2
  IC50: 1580 ± 130 nM
TrkA
  IC50: 1170 ± 90 nM
RPMI-8226
  GI %: 69.31%
CCRF-CEM
  GI %: 90.41%

## CCOC(=O)c1c(Nc2ccccc2)nn2c(-c3ccc(OC)cc3)ccnc12 [6m, Ethyl 7-(4-Methoxyphenyl)-2-(anilinyl)pyrazolo[1,5-a]pyrimidine-3-carboxylate]
CDK2/CyclinA2
  IC50: 1060 ± 90 nM
TrkA
  IC50: 960 ± 40 nM
RFX 393 [1]
  GI %: 102.68%

## CCOC(=O)c1c(Nc2ccccc2)nn2c(-c3ccc(OC)c(OC)c3)ccnc12 [6n, Ethyl 7-(3,4-Dimethoxyphenyl)-2-(anilinyl)pyrazolo[1,5-a]pyrimidine-3-carboxylate]
CDK2/CyclinA2
  IC50: 780 ± 40 nM
TrkA
  IC50: 980 ± 40 nM
NCI-H460
  GI %: 52.11%
HOP-92
  GI %: 94.73%
56 cell lines
  inhibition at 10 µM: 43.9%

## CCOC(=O)c1c(Nc2ccccc2)nn2c(-c3ccc(Cl)cc3)ccnc12 [6o, Ethyl 7-(4-Chlorophenyl)-2-(anilinyl)pyrazolo[1,5-a]pyrimidine-3-carboxylate]
CDK2/CyclinA2
  IC50: 760 ± 40 nM
TrkA
  IC50: 1590 ± 110 nM
RFX 393 [1]
  GI %: 110.55%
CCRF-CEM
  GI %: 83.85%

## CCOC(=O)c1c(Nc2ccccc2)nn2c(-c3ccc(Br)cc3)ccnc12 [6p, Ethyl 7-(4-Bromophenyl)-2-(anilinyl)pyrazolo[1,5-a]pyrimidine-3-carboxylate]
CDK2/CyclinA2
  IC50: 660 ± 40 nM
TrkA
  IC50: 1340 ± 80 nM
NCI-H460
  GI %: 66.12%
HOP-92
  GI %: 71.8%
RFX 393 [1]
  GI %: 112.34%
ACHN
  GI %: 66.02%

## CCOC(=O)c1c(Nc2ccccc2)nn2c(-c3ccc([N+](=O)[O-])cc3)ccnc12 [6q, Ethyl 7-(4-Nitrophenyl)-2-(anilinyl)pyrazolo[1,5-a]pyrimidine-3-carboxylate]
RFX 393 [1]
  GI %: 52.08%

## CCOC(=O)c1c(Nc2ccccc2)nn2c(-c3ccc4ccccc4c3)ccnc12 [6r, Ethyl 7-(Naphthalen-2-yl)-2-(anilinyl)pyrazolo[1,5-a]pyrimidine-3-carboxylate]
CDK2/CyclinA2
  IC50: 200 ± 20 nM
TrkA
  IC50: 970 ± 40 nM
RFX 393 [1]
  GI %: 81.71%

## CCOC(=O)c1c(Nc2ccccc2)nn2c(-c3ccco3)ccnc12 [6s, Ethyl 7-(Furan-2-yl)-2-(anilinyl)pyrazolo[1,5-a]pyrimidine-3-carboxylate]
RFX 393 cells [2]
  Apoptosis Late: 7.74%
  Apoptosis Early: 20.29%
  Necrosis: 4.04%
  Apoptosis Total: 32.07%
RFX 393 [3]
  IC50: 11700 ± 400 nM
RFX 393 cells [4]
  %S: 11.49%
  %G0–G1: 84.36%

## CCOC(=O)c1c(Nc2ccccc2)nn2c(-c3cccs3)ccnc12 [6t, Ethyl 2-(Anilinyl)-7-(thiophen-2-yl)pyrazolo[1,5-a]pyrimidine-3-carboxylate]
CDK2/CyclinA2
  IC50: 90 ± 10 nM
RFX 393 cells [2]
  Apoptosis Late: 9.49%
  Apoptosis Early: 11.15%
  Necrosis: 3.58%
  Apoptosis Total: 24.22%
RFX 393 [1]
  GI %: 106.08%
RFX 393 [3]
  IC50: 19900 ± 670 nM
RFX 393 cells [4]
  %S: 15.26%
  %G0–G1: 78.01%

## CCOC(=O)c1c(Nc2ccccc2)nn2c(-c3ccco3)c(C#N)cnc12 [11g, Ethyl 6-Cyano-7-(furan-2-yl)-2-(anilinyl)pyrazolo[1,5-a]pyrimidine-3-carboxylate]
CDK2/CyclinA2
  IC50: 220 ± 20 nM
TrkA
  IC50: 890 ± 30 nM
SNB-75
  GI %: 69.53%

## O=C(Nc1cnn2ccc(N3CCC[C@@H]3c3cc(F)ccc3F)nc12)N1CC[C@H](O)C1 [Larotrectinib]
Trk
  IC50: 2 nM

## CN[C@@H]1C[C@H]2O[C@@](C)([C@@H]1OC)n1c3ccccc3c3c4c(c5c6ccccc6n2c5c31)C(=O)NC4 [Staurosporine, reference compound]
RFX 393 [3]
  IC50: 70 nM
